Assay results published in patent publication US9738634B2, “Heterocyclic amide compound and herbicide” (SYNGENTA PARTICIPATIONS AG, priority 2013, dated 2017).

What was measured:
Format in all cases: in vivo
black-grass = test: Test Example 3: weedkilling efficacy through soil treatment; H: black-grass; conditions: soil treatment
Summary of the method: (§1)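 Crop and weed responses were judged three weeks after a uniform surface spray of the water-diluted emulsion at the given g/ha rate. Seeds sat beneath about 1.5 cm of sterilized diluvial soil, and boxes stood in a greenhouse at 25 to 30° C.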

Italian ryegrass = test: Test Example 3: weedkilling efficacy through soil treatment; I: Italian ryegrass; conditions: soil treatment
Summary of the method: as §1

common wind-grass = test: Test Example 3: weedkilling efficacy through soil treatment; J: common wind-grass; conditions: soil treatment, treatment dosage 80 g/ha
Description: (§2) Weedkilling Efficacy Test Through Soil Treatment
(§3) Sterilized diluvial soil was introduced into 21 cm long, 13 cm wide, 7 cm deep plastic boxes, and seeds of crabgrass, green foxtail, barnyard grass, wild oat, black-grass, Italian ryegrass, common wind-grass, Indian mallow, redroot pigweed, fig-leafed goosefoot, chickweed, catchweed, birds-eye speedwell, corn, soybean, rice, wheat, beet and rapeseed were each spot-sown, and covered with about 1.5 cm of soil. Next, emulsions of compounds of the present invention prepared according to compounding example 2 were diluted with water to give the specified dosages, and applied uniformly onto the soil surface with a small sprayer. The plants were grown by placing the plastic boxes in a greenhouse at 25 to 30° C., and 3 weeks after the pesticide treatment the effect on each type of plant was investigated on the basis of the assessment criteria of test example 1.
(§4) A: barnyard grass, B: bulrush, C: oval-leafed pondweed, D: crabgrass, E: green foxtail, F: barnyard grass, G: wild oat, H: black-grass, I: Italian ryegrass, J: common wind-grass, K: Indian mallow, L: redroot pigweed, M: fig-leafed goosefoot, N: chickweed, O: catchweed, p: birds-eye speedwell, a: transplanted rice, b: directly sown rice, c: corn, d: soybean, e: wheat, f: beet, g: rapeseed
(§5) Further, pesticide dosage (g/ha) indicates the concentration regulated such that treatment was with only the stated number of grams (g), when calculated per hectare (ha).

rapeseed = test: Test Example 3: soil treatment, effect on crop; g: rapeseed; conditions: soil treatment, treatment dosage 80 g/ha
Description: as §2, §3, §4, §5

barnyard grass [1] = test: Test Example 1: weedkilling efficacy, preemergent weed treatment in the submerged state; A: barnyard grass; conditions: treatment dosage 252 g/ha
Summary of the method: (§6)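 Visual scores against set criteria were taken 3 weeks after treatment. Compounds, as diluted emulsions at specified g/ha, went onto the water surface of 4 cm-flooded alluvial soil pots on the day weeds were sown and 2.5-leaf rice was transplanted; greenhouse held 25–30 °C.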

bulrush [2] = test: Test Example 1: weedkilling efficacy, preemergent weed treatment in the submerged state; B: bulrush; conditions: treatment dosage 252 g/ha
Summary of the method: as §6

oval-leafed pondweed [3] = test: Test Example 1: weedkilling efficacy, preemergent weed treatment in the submerged state; C: oval-leafed pondweed; conditions: treatment dosage 252 g/ha
Summary of the method: as §6

transplanted rice = test: Test Example 1: preemergent weed treatment in the submerged state, effect on crop; a: transplanted rice; conditions: treatment dosage 252 g/ha
Summary of the method: as §6

barnyard grass [4] = test: Test Example 2: weedkilling efficacy, growth period weed treatment in the submerged state; A: barnyard grass; conditions: treatment dosage 252 g/ha
Summary of the method: (§7)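 Barnyard grass, bulrush and oval-leafed pondweed sown in alluvial soil under 4 cm flooding, greenhouse 25 to 30° C. At 1-2 leaf stage, water-diluted emulsion applied to the water surface at stated g/ha dosages; effects scored 3 weeks later.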

bulrush [5] = test: Test Example 2: weedkilling efficacy, growth period weed treatment in the submerged state; B: bulrush; conditions: treatment dosage 252 g/ha
Summary of the method: as §7

oval-leafed pondweed [6] = test: Test Example 2: weedkilling efficacy, growth period weed treatment in the submerged state; C: oval-leafed pondweed; conditions: treatment dosage 252 g/ha
Summary of the method: as §7

crabgrass = test: Test Example 3: weedkilling efficacy through soil treatment; D: crabgrass; conditions: soil treatment, treatment dosage 315 g/ha
Summary of the method: as §1

green foxtail = test: Test Example 3: weedkilling efficacy through soil treatment; E: green foxtail; conditions: soil treatment, treatment dosage 315 g/ha
Summary of the method: as §1

wild oat = test: Test Example 3: weedkilling efficacy through soil treatment; G: wild oat; conditions: soil treatment, treatment dosage 315 g/ha
Summary of the method: as §1

Indian mallow = test: Test Example 3: weedkilling efficacy through soil treatment; K: Indian mallow; conditions: soil treatment, treatment dosage 315 g/ha
Summary of the method: as §1

redroot pigweed = test: Test Example 3: weedkilling efficacy through soil treatment; L: redroot pigweed; conditions: soil treatment, treatment dosage 315 g/ha
Summary of the method: as §1

fig-leafed goosefoot = test: Test Example 3: weedkilling efficacy through soil treatment; M: fig-leafed goosefoot; conditions: soil treatment, treatment dosage 315 g/ha
Summary of the method: as §1

chickweed = test: Test Example 3: weedkilling efficacy through soil treatment; N: chickweed; conditions: soil treatment, treatment dosage 315 g/ha
Summary of the method: as §1

catchweed = test: Test Example 3: weedkilling efficacy through soil treatment; O: catchweed; conditions: soil treatment, treatment dosage 315 g/ha
Description: as §2, §3, §4, §5

birds-eye speedwell = test: Test Example 3: weedkilling efficacy through soil treatment; p: birds-eye speedwell; conditions: soil treatment, treatment dosage 315 g/ha
Summary of the method: as §1

directly sown rice = test: Test Example 3: soil treatment, effect on crop; b: directly sown rice; conditions: soil treatment, treatment dosage 315 g/ha
Summary of the method: as §1

corn = test: Test Example 3: soil treatment, effect on crop; c: corn; conditions: soil treatment, treatment dosage 315 g/ha
Summary of the method: as §1

soybean = test: Test Example 3: soil treatment, effect on crop; d: soybean; conditions: soil treatment, treatment dosage 315 g/ha
Summary of the method: as §1

wheat = test: Test Example 3: soil treatment, effect on crop; e: wheat; conditions: soil treatment, treatment dosage 315 g/ha
Summary of the method: as §1

beet = test: Test Example 3: soil treatment, effect on crop; f: beet; conditions: soil treatment, treatment dosage 315 g/ha
Summary of the method: as §1

SMILES: CC(C)(C(=O)Nc1nc(C(F)(F)F)cs1)N1COCN(c2ccccc2)C1=O [A-1-06]
- H: black-grass, weedkilling efficacy grade (black-grass; treatment dosage 80 g/ha): 5 (weed kill ratio 90% or more, (practically complete withering))
- I: Italian ryegrass, weedkilling efficacy grade (Italian ryegrass; treatment dosage 80 g/ha): 5 (weed kill ratio 90% or more, (practically complete withering))
- J: common wind-grass, weedkilling efficacy grade (common wind-grass): 5 (weed kill ratio 90% or more, (practically complete withering))
- g: rapeseed, effect on crop grade (rapeseed): 4 (weed kill ratio 70% or more, less than 90%)

SMILES: CC(C)(C(=O)Nc1cc(F)ccn1)N1COCN(c2ccccc2)C1=O [A-2-03]
- A: barnyard grass, weed kill grade (barnyard grass [1]): 5 (weed kill ratio 90% or more, (practically complete withering))
- B: bulrush, weed kill grade (bulrush [2]): 5 (weed kill ratio 90% or more, (practically complete withering))
- C: oval-leafed pondweed, weed kill grade (oval-leafed pondweed [3]): 5 (weed kill ratio 90% or more, (practically complete withering))
- a: transplanted rice, effect on crop grade (transplanted rice): 1 (weed kill ratio 5% or more, less than 20%)
- A (barnyard grass) weedkilling efficacy grade (barnyard grass [4]): 5 (weed kill ratio 90% or more, (practically complete withering))
- B (bulrush) weedkilling efficacy grade (bulrush [5]): 5 (weed kill ratio 90% or more, (practically complete withering))
- C (oval-leafed pondweed) weedkilling efficacy grade (oval-leafed pondweed [6]): 3 (weed kill ratio 40% or more, less than 70%)
- D: crabgrass, weedkilling efficacy grade (crabgrass): 5 (weed kill ratio 90% or more, (practically complete withering))
- E: green foxtail, weedkilling efficacy grade (green foxtail): 5 (weed kill ratio 90% or more, (practically complete withering))
- G: wild oat, weedkilling efficacy grade (wild oat): 5 (weed kill ratio 90% or more, (practically complete withering))
- H: black-grass, weedkilling efficacy grade (black-grass; treatment dosage 315 g/ha): 5 (weed kill ratio 90% or more, (practically complete withering))
- I: Italian ryegrass, weedkilling efficacy grade (Italian ryegrass; treatment dosage 315 g/ha): 5 (weed kill ratio 90% or more, (practically complete withering))
- K: Indian mallow, weedkilling efficacy grade (Indian mallow): 0 (weed kill ratio 5% or less (practically no effect))
- L: redroot pigweed, weedkilling efficacy grade (redroot pigweed): 4 (weed kill ratio 70% or more, less than 90%)
- M: fig-leafed goosefoot, weedkilling efficacy grade (fig-leafed goosefoot): 4 (weed kill ratio 70% or more, less than 90%)
- N: chickweed, weedkilling efficacy grade (chickweed): 4 (weed kill ratio 70% or more, less than 90%)
- O: catchweed, weedkilling efficacy grade (catchweed): 5 (weed kill ratio 90% or more, (practically complete withering))
- P: birds-eye speedwell, weedkilling efficacy grade (birds-eye speedwell): 5 (weed kill ratio 90% or more, (practically complete withering))
- b: directly sown rice, effect on crop grade (directly sown rice): 5 (weed kill ratio 90% or more, (practically complete withering))
- c: corn, effect on crop grade (corn): 3 (weed kill ratio 40% or more, less than 70%)
- d: soybean, effect on crop grade (soybean): 0 (weed kill ratio 5% or less (practically no effect))
- e: wheat, effect on crop grade (wheat): 2 (weed kill ratio 20% or more, less than 40%)
- f: beet, effect on crop grade (beet): 0 (weed kill ratio 5% or less (practically no effect))

SMILES: Cc1ccnc(NC(=O)C(C)(C)N2COCN(c3ccccc3)C2=O)c1 [A-2-37]
- A: barnyard grass, weed kill grade (barnyard grass [1]): 5 (weed kill ratio 90% or more, (practically complete withering))
- B: bulrush, weed kill grade (bulrush [2]): 5 (weed kill ratio 90% or more, (practically complete withering))
- C: oval-leafed pondweed, weed kill grade (oval-leafed pondweed [3]): 5 (weed kill ratio 90% or more, (practically complete withering))
- a: transplanted rice, effect on crop grade (transplanted rice): 0 (weed kill ratio 5% or less (practically no effect))
- A (barnyard grass) weedkilling efficacy grade (barnyard grass [4]): 5 (weed kill ratio 90% or more, (practically complete withering))
- B (bulrush) weedkilling efficacy grade (bulrush [5]): 5 (weed kill ratio 90% or more, (practically complete withering))
- C (oval-leafed pondweed) weedkilling efficacy grade (oval-leafed pondweed [6]): 3 (weed kill ratio 40% or more, less than 70%)
- D: crabgrass, weedkilling efficacy grade (crabgrass): 5 (weed kill ratio 90% or more, (practically complete withering))
- E: green foxtail, weedkilling efficacy grade (green foxtail): 4 (weed kill ratio 70% or more, less than 90%)
- G: wild oat, weedkilling efficacy grade (wild oat): 3 (weed kill ratio 40% or more, less than 70%)
- H: black-grass, weedkilling efficacy grade (black-grass; treatment dosage 315 g/ha): 3 (weed kill ratio 40% or more, less than 70%)
- I: Italian ryegrass, weedkilling efficacy grade (Italian ryegrass; treatment dosage 315 g/ha): 5 (weed kill ratio 90% or more, (practically complete withering))
- K: Indian mallow, weedkilling efficacy grade (Indian mallow): 0 (weed kill ratio 5% or less (practically no effect))
- L: redroot pigweed, weedkilling efficacy grade (redroot pigweed): 1 (weed kill ratio 5% or more, less than 20%)
- M: fig-leafed goosefoot, weedkilling efficacy grade (fig-leafed goosefoot): 3 (weed kill ratio 40% or more, less than 70%)
- N: chickweed, weedkilling efficacy grade (chickweed): 1 (weed kill ratio 5% or more, less than 20%)
- O: catchweed, weedkilling efficacy grade (catchweed): 0 (weed kill ratio 5% or less (practically no effect))
- P: birds-eye speedwell, weedkilling efficacy grade (birds-eye speedwell): 5 (weed kill ratio 90% or more, (practically complete withering))
- b: directly sown rice, effect on crop grade (directly sown rice): 2 (weed kill ratio 20% or more, less than 40%)
- c: corn, effect on crop grade (corn): 1 (weed kill ratio 5% or more, less than 20%)
- d: soybean, effect on crop grade (soybean): 0 (weed kill ratio 5% or less (practically no effect))
- e: wheat, effect on crop grade (wheat): 0 (weed kill ratio 5% or less (practically no effect))
- f: beet, effect on crop grade (beet): 0 (weed kill ratio 5% or less (practically no effect))

SMILES: CC(C)(C(=O)Nc1cccc(I)n1)N1COCN(c2ccccc2)C1=O [A-2-11]
- A: barnyard grass, weed kill grade (barnyard grass [1]): 5 (weed kill ratio 90% or more, (practically complete withering))
- B: bulrush, weed kill grade (bulrush [2]): 5 (weed kill ratio 90% or more, (practically complete withering))
- C: oval-leafed pondweed, weed kill grade (oval-leafed pondweed [3]): 5 (weed kill ratio 90% or more, (practically complete withering))
- a: transplanted rice, effect on crop grade (transplanted rice): 0 (weed kill ratio 5% or less (practically no effect))
- A (barnyard grass) weedkilling efficacy grade (barnyard grass [4]): 4 (weed kill ratio 70% or more, less than 90%)
- B (bulrush) weedkilling efficacy grade (bulrush [5]): 5 (weed kill ratio 90% or more, (practically complete withering))
- C (oval-leafed pondweed) weedkilling efficacy grade (oval-leafed pondweed [6]): 3 (weed kill ratio 40% or more, less than 70%)
- D: crabgrass, weedkilling efficacy grade (crabgrass): 5 (weed kill ratio 90% or more, (practically complete withering))
- E: green foxtail, weedkilling efficacy grade (green foxtail): 5 (weed kill ratio 90% or more, (practically complete withering))
- G: wild oat, weedkilling efficacy grade (wild oat): 2 (weed kill ratio 20% or more, less than 40%)
- H: black-grass, weedkilling efficacy grade (black-grass; treatment dosage 315 g/ha): 5 (weed kill ratio 90% or more, (practically complete withering))
- I: Italian ryegrass, weedkilling efficacy grade (Italian ryegrass; treatment dosage 315 g/ha): 5 (weed kill ratio 90% or more, (practically complete withering))
- K: Indian mallow, weedkilling efficacy grade (Indian mallow): 0 (weed kill ratio 5% or less (practically no effect))
- L: redroot pigweed, weedkilling efficacy grade (redroot pigweed): 0 (weed kill ratio 5% or less (practically no effect))
- M: fig-leafed goosefoot, weedkilling efficacy grade (fig-leafed goosefoot): 3 (weed kill ratio 40% or more, less than 70%)
- N: chickweed, weedkilling efficacy grade (chickweed): 4 (weed kill ratio 70% or more, less than 90%)
- O: catchweed, weedkilling efficacy grade (catchweed): 2 (weed kill ratio 20% or more, less than 40%)
- P: birds-eye speedwell, weedkilling efficacy grade (birds-eye speedwell): 4 (weed kill ratio 70% or more, less than 90%)
- b: directly sown rice, effect on crop grade (directly sown rice): 3 (weed kill ratio 40% or more, less than 70%)
- c: corn, effect on crop grade (corn): 0 (weed kill ratio 5% or less (practically no effect))
- d: soybean, effect on crop grade (soybean): 0 (weed kill ratio 5% or less (practically no effect))
- e: wheat, effect on crop grade (wheat): 1 (weed kill ratio 5% or more, less than 20%)
- f: beet, effect on crop grade (beet): 2 (weed kill ratio 20% or more, less than 40%)
